Measured values published in patent publication US10251897B2, “GLUT4 endocytosis inhibitor” (NISHIZAKI BIOINFORMATION RESEARCH INSTITUTE, priority 2014, dated 2019).

What was measured:
GLUT4 [1] = assay: GLUT4 internal transfer (uptake) assay after insulin pre-treatment; format: cell-based; details: insulin 100 nM 30 min then washed
Experimental: FIG. 2 is a graph showing that the GLUT4 cellular membrane distribution increasing action of DOPE derives from the suppression of GLUT4 endocytosis. 3T3L1-GLUT4myc adipocytes were treated with insulin (100 nM) for 30 min (−30-0 min), then washed to remove insulin (0 min), and DOPE (10 mM) was added to an extracellular solution. After incubation for 120 min, the cells were lysed, and separated into the cytoplasm (C) fraction and cellular membrane (M) fraction, after which Western blotting was performed using an anti-c-myc antibody. […] P value, ANOVA (Bonferroni adjustment). NS; not significant.
(§1) 3T3L1-GLUT4myc fibroblast strain expressing GLUT4myc was used. The cells are constructed by inserting human c-MYC epitope (14 amino acids) into the first ectodomain. […]
The protein concentration of each fraction was measured using BCA protein assay kit (Thermo Fisher Scientific, Waltham, Mass., USA). […] The immunoreactivity was detected using ECL kit (Invitrogen), and visualized using a chemical luminescence detection system (chemiluminescence detection system; GE Healthcare, Piscataway, N.J., USA). The signal density was measured using an image analysis software (Image Gauge software; GE Healthcare). […]

PKCα = PKCα (Homo sapiens, UniProt P17252); assay: Cell free PKC assay, PKCα activated by TPA; format: biochemical; details: DOPE 100 μM, TPA 1 μM
Experimental: (§2) PKC activity was monitored in a cell-free system. (A) Given PKC isozyme was evaluated in the absence or presence of DOPE (100 μM). […] P value, compared to each PKC isozyme activation in the absence of DOPE, Dunnett's test. (B) The activity of PKCα was evaluated in the absence (control) or presence of DOPE (100 μM), in the absence or presence of TPA (1 μM). […] P value, Dunnett's test. TPA; 12-O-tetradecanoylphorbol-[…].
(§3) PKC activity in a cell-free system was quantified by the methods described in previous reports (Kanno T et al. J Lipid Res 2006; 47:1146-1156). In short, synthesized PKC substrate peptide (10 μM) was reacted with various PKC isozymes in a medium containing 20 mM Tris-HCl (pH 7.5), 5 mM magnesium acetate, 10 μM ATP, in the presence or absence of DOPE (100 μm), in the presence or absence of 1 μM TPA (12-O-tetradecanoylphorbol-13-acetate) at 30° C. for 5 min. […] They were applied on reversed-phase HPLC (LC-10ATvp, Shimadzu Co., Kyoto, Japan), and the peak of substrate peptide and the peak of a new resultant product were measured by the absorbance at 214 nm. The areas of unphosphorylated PKC substrate peptide and phosphorylated PKC substrate peptide were measured (total area corresponds to the concentration of PKC substrate peptide used in this Example), and the amount of the phosphorylated substrate peptide was calculated. […]

PKC isozymes = assay: Cell free PKC assay, PKC isozymes; format: biochemical; details: DOPE 100 μM, absence of TPA
Experimental: as §2, §3

Glucose tolerance test = format: in vivo, C57BL/KsJ-lepr^db/lepr^db mouse; details: type 2 diabetes model mouse, DOPE 0.1, 1, 10 mg/kg oral 30 min before glucose 2 g/kg; 30, 60, 90 min
Experimental: FIG. 6 is a graph showing that DOPE decreases the serum glucose level in C57BL/KsJ-lepr^db/lepr^db mouse. The mouse was placed in glucose starvation for 12 hr, glucose (2 g/kg) was orally administered, the blood was recovered at a given time and serum glucose assay was performed. DOPE was orally administered at a given concentration (0-10 mg/kg) 30 min before administration of glucose. […] P value, Fisher's PLSD (Protected Least Significant Difference test).
C57BL/KsJ-lepr^db/lepr^db mouse (female, 8-week-old) (CLEA Japan; Tokyo, Japan) was used. Glucose tolerance test was performed using the mouse starved for 12 hr. Glucose (2 g/ml/kg body weight) was administered by gavage, and the time point thereof was taken as 0 h. DOPE (0, 0.1, 1, 10 mg/kg) was orally administered 30 min before administration of glucose. Brine was used for DOPE (0 mg/kg). The blood (10 μl) was collected from the tail vein at the time points of 30, 60, and 90 min, and each plasma sample which was labeled with 4-aminobenzyl ethyl ester (ABEE) and prepared from the obtained blood was loaded on high performance liquid chromatography (HPLC) system (LC-10ATvp; Shimadzu Co., Kyoto, Japan). The glucose concentration was calculated from a peak area/concentration analytical curve prepared using the standard glucose solution.

GLUT4 [2] = assay: GLUT4 mobilization monitoring (cellular membrane distribution of GLUT4, Western blotting with anti-c-myc antibody); format: cell-based
Experimental: FIG. 1 is a graph showing that DOPE has an action to increase cellular membrane distribution of GLUT4 in differentiated 3T3L1-GLUT4myc adipocytes. The cells were not treated with (Control), or treated with 1 μM of various phospholipid derivatives and, after 20 min, lysed, and separated into the cytoplasm (C) fraction and cellular membrane (M) fraction, after which Western blotting was performed using an anti-c-myc antibody. […] P value, ANOVA (Bonferroni adjustment). NS; not significant. DOPE; 1,2-dioleoyl-sn-glycero-3-phosphoethanolamine, DAPE; 1,2-diarachidonoyl-sn-glycero-3-phosphoethanolamine, DPPE; 1,2-dipalmitoleoyl-sn-glycero-3-phosphoethanolamine, DLPE; 1,2-dilinoleoyl-sn-glycero-3-phosphoethanolamine.
as §1
The protein concentration of each fraction was measured using BCA protein assay kit (Thermo Fisher Scientific, Waltham, Mass., USA). […] The immunoreactivity was detected using ECL kit (Invitrogen), and visualized using a chemical luminescence detection system (chemiluminescence detection system; GE Healthcare, Piscataway, N.J., USA). The signal density was measured using an image analysis software (Image Gauge software; GE Healthcare).

Row | Molecule | endocytosis of GLUT4 transported onto the cellular membrane by insulin stimulation (GLUT4 [1]; 3T3L1-GLUT4myc adipocytes) | PKCα activity activated by TPA (PKCα) | PKC activation (PKC isozyme activity, pmol/min) (PKC isozymes) | blood glucose level (Glucose tolerance test) | distribution of GLUT4 in cellular membrane (c-myc signal in cellular membrane fraction / total cells) (GLUT4 [2]; differentiated 3T3L1-GLUT4myc adipocytes, 1 μM phospholipid derivative, 20 min, vs Control) | decrease of GLUT4 on the cellular membrane by endocytosis after insulin stimulation (GLUT4 [1]; siRNA-transfected 3T3L1-GLUT4myc adipocytes, 120 min) | GLUT4 distribution on the cellular membrane (GLUT4 [2]; 3T3L1-GLUT4myc adipocytes 48 hr after siRNA transfection, vs NC siRNA)
1 | CCCCCCCC/C=C\CCCCCCCC(=O)OC[C@H](COP(=O)(O)OCCN)OC(=O)CCCCCCC/C=C\CCCCCCCC [DOPE, 1,2-Dioleoyl-sn-glycerol-3-phosphoethanolamine] | suppressed | suppress PKCα activated by TPA | not involved in PKC activation | decrease blood glucose level of type 2 diabetes model mouse in a dose dependent manner | significantly increased | – | –
2 | PKCα siRNA: siRNA for PKCα, SEQ ID NO: 1 and 2, purchased from Ambion (chain 1 GAACGUGCAUGAGGUGAAATT; chain 2 UUUCACCUCAUGCACGUUCTT; chemistry not given here) [reference compound] | – | – | – | – | – | the decrease was suppressed | significantly increased
